Data published in US20160106439A1, “PNEUMATIC TOURNIQUET” (BIONUMERIK PHARMACEUTICALS, INC., priority 2013, published 2016).
Entries after “also recorded” stand apart in the source; their conditions may differ. Read-outs that look alike come from different tables or passages of the source.

Assays:
[1] = target: T1, TrxR/Trx system (Homo sapiens, UniProt P10599); assay: NADPH oxidation by TrxR and Trx; assay type: biochemical; details: increasing concentrations of the substance
T1 construct: 6xHis (N); purchased Sigma (Trx); American Diagnostica (bovine TrxR)
T1 sequence (P10599 1-105): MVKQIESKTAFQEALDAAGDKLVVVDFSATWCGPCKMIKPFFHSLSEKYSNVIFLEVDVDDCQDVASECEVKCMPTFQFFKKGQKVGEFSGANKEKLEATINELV

[2] = target: T2, Recombinant human Trx (Homo sapiens, UniProt P10599); assay type: biochemical; design: 6xHis (N); purchased Sigma (Trx); American Diagnostica (bovine TrxR); details: over MSSH and MSSCE
T2 sequence (P10599 1-105): T1 sequence (P10599 1-105)
Experimental: See, Luthman M and Holmgren A. Rat liver thioredoxin and thioredoxin reductase: purification and characterization. […] All disulfides were added to reactions as 10x solutions in buffer. The total volume of each reaction was 0.1 mL. Reactions were initiated by the addition of TrxR and were incubated at 25° C. for 40 minutes. Reactions were analyzed using a Molecular Devices SpectraMax Plus UV/vis plate reader and the activity was calculated using a 4 minute linear portion of each assay.

[3] = system: non-small cell lung cancer; details: patients >=65 years treated with carboplatin and paclitaxel; cited from earlier work
[4] = system: bovine brain microtubule protein (α-/β-tubulin); assay: Microtubule protein polymerization assay (OD350) and electron microscopy; assay type: biochemical; details: for effect on GTP-catalyzed microtubule protein polymerization: preincubated with microtubule protein on ice 20 minutes, 37° C.
[5] = system: some cell lines; assay: Mesna cytotoxicity in vitro (unpublished data)
[6] = target: T3, thioredoxin (Homo sapiens, UniProt P10599); assay: LC-MS of thioredoxin incubations; assay type: binding; details: ion at m/z 1288.3
T3 construct: purchased Sigma (SigmaAldrich); host or cells: E. coli

[7] = target: T2, Recombinant human Trx; assay: LC MS of Trypsin digested Trx after incubation with Tavocept, mesna or glutathione; assay type: binding; design: purchased Sigma (SigmaAldrich); host or cells: E. coli; details: fragment CMPTFQFFK (cys73); 10 mM, 4 to 6 hours
[8] = read-out: Cmax for mesna; 41 g/m^2 Tavocept; cited from earlier work
[9] = single oral dose of 100 mg, healthy volunteers; cited from earlier work
[10] = target: WT EGFR kinase (Homo sapiens, UniProt P00533); assay: WT EGFR kinase assay (ADP-glo); details: for more inhibition of WT EGFR relative to 4 nM Erlotinib alone: 10 μM ATP; for increased inhibition of WT EGFR relative to 20 nM Erlotinib alone: 100 μM ATP
Chain of WT EGFR kinase (P00533 25-1210): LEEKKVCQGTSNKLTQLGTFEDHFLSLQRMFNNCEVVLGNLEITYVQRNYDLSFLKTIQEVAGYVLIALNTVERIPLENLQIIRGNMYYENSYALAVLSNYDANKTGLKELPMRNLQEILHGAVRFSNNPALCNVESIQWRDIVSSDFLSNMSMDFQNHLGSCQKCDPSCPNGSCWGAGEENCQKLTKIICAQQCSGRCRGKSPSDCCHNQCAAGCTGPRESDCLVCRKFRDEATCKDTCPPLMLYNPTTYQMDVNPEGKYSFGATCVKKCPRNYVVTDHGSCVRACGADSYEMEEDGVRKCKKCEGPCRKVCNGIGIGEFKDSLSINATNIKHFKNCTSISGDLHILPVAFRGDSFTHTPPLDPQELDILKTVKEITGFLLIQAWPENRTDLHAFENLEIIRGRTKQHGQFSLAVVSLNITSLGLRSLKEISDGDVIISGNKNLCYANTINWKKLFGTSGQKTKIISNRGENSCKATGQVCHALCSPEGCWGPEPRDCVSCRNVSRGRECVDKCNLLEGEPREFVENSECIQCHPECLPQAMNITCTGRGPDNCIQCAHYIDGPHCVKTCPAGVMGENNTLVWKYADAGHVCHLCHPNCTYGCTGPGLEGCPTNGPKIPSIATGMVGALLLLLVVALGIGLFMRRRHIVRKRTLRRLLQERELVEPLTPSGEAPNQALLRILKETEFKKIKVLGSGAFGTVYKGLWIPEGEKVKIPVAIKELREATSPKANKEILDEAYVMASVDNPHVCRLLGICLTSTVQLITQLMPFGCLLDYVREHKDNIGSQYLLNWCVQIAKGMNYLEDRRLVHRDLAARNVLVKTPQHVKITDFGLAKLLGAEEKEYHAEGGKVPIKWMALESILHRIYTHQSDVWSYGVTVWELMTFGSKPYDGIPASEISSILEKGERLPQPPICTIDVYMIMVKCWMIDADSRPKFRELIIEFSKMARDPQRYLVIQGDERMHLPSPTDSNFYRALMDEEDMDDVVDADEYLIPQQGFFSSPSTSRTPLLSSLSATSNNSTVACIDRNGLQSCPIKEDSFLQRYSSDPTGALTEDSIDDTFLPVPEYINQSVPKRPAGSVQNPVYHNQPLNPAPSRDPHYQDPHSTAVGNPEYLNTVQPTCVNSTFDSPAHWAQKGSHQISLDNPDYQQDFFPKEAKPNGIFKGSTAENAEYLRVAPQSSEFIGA

[11] = target: T4, TrxR/Trx insulin disulfide reduction (Homo sapiens, UniProt P10599); assay: TrxR/Trx insulin disulfide reduction assay with isolated Trx species; assay type: biochemical; details: free Tavocept or glutathione disulfide removed
T4 construct: purchased Sigma; host or cells: E. coli (said of the Sigma Trx)
T4 sequence (P10599 1-105): T1 sequence (P10599 1-105)

N[C@@H](CCC(=O)N[C@@H](CSSCCS(=O)(=O)O)C(=O)NCC(=O)O)C(=O)O [MSSG, mesna-glutathione disulfide]
NADPH oxidation by TrxR and Trx [1]: increases
Substrate preference of Trx [2]: preferred slightly

bevacizumab [Avastin]
Survival advantage [3]: did not confer a survival advantage

O=S(=O)([O-])CCS.[Na+] [mesna, 2-mercapto ethane sulfonate]
effect alone on MTP polymerization or paclitaxel-induced hyperpolymerization [4]: no detectable effect
protection against monoaquocisplatin-induced loss of polymerization ([4]; mesna 200 μM preincubated 30 minutes with monoaquocisplatin 36 μM): prevented the monoaquocisplatin-induced loss; also recorded: able to protect
effect on GTP-catalyzed microtubule protein polymerization [4]: did not affect
effect on GTP-catalyzed microtubule protein polymerization ([4]; listed as Mesna): does not affect
Concentrations that can be cytotoxic [5]: ≤ 400 µM
mesna adduct on thioredoxin fragment CMPTFQFFK [6]: Cys73-mesna adduct
Mesna-Cysteine Adduct Detected? [7]: presence of a mesna adduct on Cys73 of Trx
Cmax [8]: ~323 µM

C#Cc1cccc(Nc2ncnc3cc(OCCOC)c(OCCOC)cc23)c1 [Erlotinib]
Cmax [9]: 1390 ng/mL

NC(CSSCCS(=O)(=O)O)C(=O)O (stereo not drawn) [MSSC, mesna-cysteine disulfide]
NADPH oxidation by TrxR and Trx [1]: increases
Substrate preference of Trx [2]: preferred slightly
more inhibition of WT EGFR relative to 4 nM Erlotinib alone ([10]; 0.75 mM + 4 nM Erlotinib): 16%
more inhibition of WT EGFR relative to 4 nM Erlotinib alone ([10]; 1.5 mM + 4 nM Erlotinib): 34%
more inhibition of WT EGFR relative to 4 nM Erlotinib alone ([10]; 2.5 mM + 4 nM Erlotinib): 54%
increased inhibition of WT EGFR relative to 20 nM Erlotinib alone ([10]; 0.2 mM + 20 nM Erlotinib): 17%
increased inhibition of WT EGFR relative to 20 nM Erlotinib alone ([10]; 2.5 mM + 20 nM Erlotinib): 15%

B1: Trx-mesna: Trx covalently modified by a Tavocept-derived mesna moiety (conjugate, UniProt P10599 2-105, looked up)
Thioredoxin: VKQIESKTAFQEALDAAGDKLVVVDFSATWCGPCKMIKPFFHSLSEKYSNVIFLEVDVDDCQDVASECEVKCMPTFQFFKKGQKVGEFSGANKEKLEATINELV
modifications: mesna-modified
notes: Trx covalently modified by a Tavocept-derived mesna moiety
Effect on initial velocity relative to apo-Trx [11]: clear effect on initial velocity

B2: Trx-GSH: Trx modified by glutathione, prepared with glutathione disulfide as control (conjugate, UniProt P10599 2-105, looked up)
Thioredoxin: B1 Thioredoxin
modifications: glutathione-modified
notes: Trx modified by glutathione, prepared with glutathione disulfide as control
Effect on initial velocity relative to apo-Trx [11]: clear effect on initial velocity
